Measured values as given in patent publication US8044071B2, “Method for reducing side effects of CB2 receptor agonist therapy using a combination of a selective CB2 receptor agonist and a selective CB1 receptor antagonist” (Abbott Laboratories, priority 2007, dated 2011).
Where two headings read alike, the source gives them in different places.

What was measured:
human CB1 = target: T1, human CB1 (Homo sapiens, UniProt P21554); assay: CB1 radioligand binding assay ([3H]CP-55,940 competition)
T1 construct: purchased Perkin Elmer; host or cells: HEK293 membranes
T1 sequence (P21554 whole entry): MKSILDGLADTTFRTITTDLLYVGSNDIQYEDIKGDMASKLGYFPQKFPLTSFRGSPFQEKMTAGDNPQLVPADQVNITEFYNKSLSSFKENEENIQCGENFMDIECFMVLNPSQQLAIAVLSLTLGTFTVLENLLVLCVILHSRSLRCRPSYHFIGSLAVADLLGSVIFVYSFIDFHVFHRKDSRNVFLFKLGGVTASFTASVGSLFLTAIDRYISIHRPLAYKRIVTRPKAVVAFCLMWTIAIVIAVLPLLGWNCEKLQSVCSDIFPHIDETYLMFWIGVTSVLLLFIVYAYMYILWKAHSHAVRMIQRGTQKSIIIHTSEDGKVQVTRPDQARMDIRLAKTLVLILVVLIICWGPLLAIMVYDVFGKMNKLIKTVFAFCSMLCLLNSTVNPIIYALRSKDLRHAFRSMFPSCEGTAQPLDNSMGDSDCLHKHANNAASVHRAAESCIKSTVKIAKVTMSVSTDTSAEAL
Protocol: To determine the selectivity (Ki) of the compounds of the present application for CB2 receptors relative to CB1 receptors, radioligand binding assays are performed, which are described herein.
For CB1 radioligand binding assay HEK293 human CB1 membranes were purchased from Perkin Elmer. Binding was initiated by the addition of membranes (8-12 μg per well) into wells (Scienceware 96-well DeepWell plate, VWR, West Chester, Pa.) containing [^3H]CP-55,940 (120 Ci/mmol, Perkin Elmer, Boston, Mass.) and a sufficient volume of assay buffer (50 mM Tris, 2.5 mM EDTA, 5 mM MgCl2, and 0.5 mg/mL fatty acid free BSA, pH 7.4) to bring the total volume to 250 μL. After incubation (30° C. for 90 minutes), binding was terminated by the addition of 300 μL per well of cold assay buffer and rapid vacuum filtration (FilterMate Cell Harvester, Perkin Elmer, Boston, Mass.) through a UniFilter-96 GF/C filter plate (Perkin Elmer, Boston, Mass.) (pre-soaked in 0.3% PEI at least 3 hours), followed by five washes with cold assay buffer. The bound activity was counted in the TopCount using Microscint-20 (both from Perkin Elmer, Boston, Mass.). Competition experiments were conducted with 1 nM [^3H]CP-55,940 and five concentrations (1 nM to 10 μM) of displacing ligands. The addition of 10 μM unlabeled CP-55,940 (Tocris, Ellisville, Mo.) was used to assess nonspecific binding.

hind limb grip force = assay: Grip force behavior (hind limb); assay type: in vivo; settings: rat, 30 μmol/kg i.p.
Protocol: Adverse effects can be assessed by measurements of Grip Force (GF) Behavior. Measurements of hind limb grip force are conducted by recording the maximum compressive force exerted on the hind limb strain gauge setup, in a commercially available grip force measurement system (Columbus Instruments, Columbus, Ohio). During testing, animals are gently restrained by grasping around its rib cage and then allowed to grasp the wire mesh frame (10×12 cm^2) attached to the strain gauge. The experimenter then moves the animal in a rostral-to-caudal direction until the grip is broken. Each animal is sequentially tested twice at approximately 2-3 min interval to obtain a raw mean grip force (CFmax). This raw mean grip force data is in turn converted to a maximum hindlimb compressive force (CFmax) (gram force)/kg body weight for each animal. A group mean±S.E.M. for CFmax/kg body weight is calculated. A group of age-matched naïve animals are added to each experiment and the data obtained from the different dose groups for each compound—or compound combination—being tested are compared to the naïve group (assigned as being 100% normal). […]
Using the grip force behavior assay, the effects of CB2 agonist B were evaluated after the administration of vehicle or the CB1 antagonist rimonabant. […]

mean arterial pressure = assay: Mean arterial pressure in anesthetized rats; assay type: in vivo; settings: anesthetized rat
Protocol: Male Sprague-Dawley rats were anesthetized with the long acting barbiturate, Inactin. Catheters were placed in the femoral artery for measurement of MAP and HR. Additional catheters were placed in the femoral vein for compound administration and saline infusion to maintain hydration. Following a 30-minute control period, vehicle (PEG400), compound B (vehicle: PEG400; 2 ml/kg) or CB2 agonist B (vehicle: PEG400; 2 ml/kg) plus CB1 antagonist rimonabant (vehicle: PEG400; 1 ml/kg) was administered intravenously over a 30-minute infusion. When administered simultaneously, compound B and rimonabant were infused individually using separate syringes. The doses tested were 1.0 mg/kg for compound B and 3.2 mg/kg for rimonabant. Data is expressed as mean from 3 rats ±sem. […] These effects indicate that the reduction in blood pressure by CB2 agonist B results from its residual activation of the CB1 receptor.

Row | Compound | Ki (human CB1) | Ki (human CB1; HEK293 human CB1 membranes, 1 nM [3H]CP-55,940, read-out: Ki for CB1 receptors) | reduction of grip force, agonist after rimonabant (hind limb grip force; rimonabant 30 μmol/kg i.p. 15 min before) | reduction of grip force, agonist after vehicle (hind limb grip force; tested 30 min after second dose) | effect on mean arterial pressure (MAP), agonist with rimonabant (mean arterial pressure; 1.0 mg/kg i.v. plus rimonabant 3.2 mg/kg i.v., 30-minute infusion) | effect on mean arterial pressure (MAP), agonist alone (mean arterial pressure; 1.0 mg/kg intravenously over 30-minute infusion)
1 | CCCCn1cc(C(C)(C)C)s/c1=N\C(=O)c1cc(Cl)ccc1OC [compound A, (Z)—N-(5-tert-butyl-3-butylthiazol-2(3H)-ylidene)-5-chloro-2-methoxybenzamide] | 3670 nM | – | – | – | – | –
2 | COCCn1c(C)c(C)s/c1=N\C(=O)C1C(C)(C)C1(C)C [compound B, (Z)—N-(3-(2-methoxyethyl)-4,5-dimethylthiazol-2(3H)-ylidene)-2,2,3,3-tetramethylcyclopropanecarboxamide] | – | 273 nM | completely blocked | 42% | devoid of an effect on blood pressure relative to vehicle | has an effect to reduce blood pressure
